Measured values from patent US4233299A, “4-Hydroxy-2H-1,2-benzothiazine-3-carboxamide-1,1-dioxides and salts thereof” (priority 1977, dated 1980).
Entries after “also recorded” stand apart in the source; their conditions may differ. Like-named read-outs stand apart in the source and are kept apart here.

Tests used:
[1] = ulcerogenic effect on the stomach of the rat; assay type: in vivo, male Chbb:THOM-rats; conditions: rat, in vivo; for selectivity ratio: po, Table IV, ED50 ulcer / ED50 adjuvant arthritis prim. reaction, read-out: Therapeutic Ratio I/II; for TD50: Table II, daily oral administration for 3 days, limits in parentheses, Litchfield and Wilcoxon, read-out: Ulcerogenic activity in the stomach ED50
Method: (§1) The test was carried out on male Chbb:THOM-rats with an average body weight of 130 gm at the beginning of the study. The animals were fed with a standard diet (Altromin-R) ad libitum. The test compounds were administered perorally as a trituration in 1% methyl cellulose (1 ml/100 gm animal) by means of an esophageal sound once a day on three successive days. Four hours after the last administration the animals were killed. The stomachs were dissected and the mucosa was washed with water for subsequent macroscopic evaluation. […] Therap. 96, 99 (1949)].

stomach of the rat = experiment: ulcerogenic effect on the stomach of the rat; assay type: in vivo, male Chbb:THOM-rats
Method: as §1

[2] = tested on: pain caused by inflammation (yeast edema); experiment: activity against the pain caused by inflammation (Randall and Selitto); assay type: in vivo, male Chbb:THOM-rats; conditions: for ED50: po, 1.5 h, read-out: Randall-Selitto ED50
Method: The activity against the pain caused by inflammation was tested according to Randall and Selitto [Arch. Int. Pharmacodyn. 111, 409 (1957] in male Chbb:THOM-rats, having a body weight of 100 to 130 gm. The test compounds were administered perorally 90 minutes after the induction of the yeast edema by means of an esophageal tube. After further 90 minutes the pain threshold was determined in the animals treated with the test compound and in the control animals treated only with the vehicle methyl cellulose, and by using a linear regression analysis an ED50 was calculated with the confidence limits according to FIELLER, the ED50 being the dose which increased the pain threshold by 50%.

[3] = acute toxicity in the mouse; assay type: in vivo, male and female Chbb: NMRI (SPF)-mice; conditions: in vivo; for selectivity ratio: po, Table V, LD50 / ED50 adjuvant arthritis prim. reaction, read-out: Therapeutic Ratio I/II (converted); for LD50 at 336 h: Table III, oral administration, mouse, deaths within 14 days, limits in parentheses
Method: (§2) The acute toxicity was determined on male and female Chbb: NMRI (SPF)-mice (sex ratio of each dosage group 1:1) having an average body weight of 20 gm. The test compound was administered perorally as a trituration in 1% of methyl cellulose (0.2 ml/10 gm animal) by means of an esophageal sound.
(§3) The calculation of the LD50 -values was effected according to the method of LITCHFIELD and WILCOXON, based on the percentage of animals which died within 14 days after administration of each dose.

mouse = experiment: acute toxicity in the mouse; assay type: in vivo, male and female Chbb: NMRI (SPF)-mice; conditions: compared with the other compounds; see Table V
Method: as §2, §3

adjuvant arthritis = experiment: activity against adjuvant arthritis in the rat; assay type: in vivo, male Chbb:THOM-rats; conditions: for ED50: Rattus norvegicus, 504 h; for antiphlogistic activity: in words, compared with compound A
Method: 0.1 ml of a 1% suspension of M. butyricum in viscous paraffin oil was administered by subplantar injection to the right hind paw of male Chbb:THOM-rats having an average body weight of 210 gm at the beginning of the test. […]
Using a linear regression analysis, an ED50 with the confidence limits according to FIELLER [Quart. J. Pharm. Pharmacol. 17, 117 (1944)] was calculated as the dosage which reduces the swelling of the paws by 50% in comparison to the control animals.

[4] = Table I, daily oral administration, 21 days, dose per day, left hind paw swelling reduced by 50%, confidence limits according to FIELLER in parentheses, read-out: Activity against the secondary reaction ED50
[5] = Table I, daily oral administration, 21 days, dose per day, right hind paw swelling reduced by 50%, confidence limits according to FIELLER in parentheses, read-out: Activity against the primary reaction ED50

Compound: Cc1cnc(NC(=O)C2=C(O)c3ccccc3S(=O)(=O)N2C)s1 [Compound A, 4-Hydroxy-2-methyl-N-(5-methyl-2-thiazolyl)-2H-1,2-benzothiazine-3-carboxamide-1,1-dioxide]
- selectivity ratio [1]: 8.25
- TD50 [1]: 2.31 mg/kg
- therapeutic ratio relative to compound C (stomach of the rat; Table IV ratio, times greater than that of compound C): about 7 times
- stomach compatibility (stomach of the rat; in vivo): significantly better
- therapeutic ratio relative to compound B (stomach of the rat; times greater than that of compound B): 10 times
- ED50 ([2]; Table VI, peroral, rat, dose which increased the pain threshold by 50%): 5.6 mg/kg
- effectiveness against the pain caused by inflammation ([2]; rat, compared with compound C): increased effectiveness
- selectivity ratio [3]: 1680
- LD50 at 336 h [3]: 470 mg/kg
- difference between the antiphlogistically active doses and the toxic doses (mouse): distinctly higher than in the other compounds
- ED50 (adjuvant arthritis; [4]): 0.12 mg/kg
- ED50 (adjuvant arthritis; [5]): 0.28 mg/kg
- effect on the inflammatory primary reactions, relative to compound C (adjuvant arthritis; compared with compound C): three times greater
- effect on the specific secondary reactions, relative to compound C (adjuvant arthritis; contralateral paw, compared with compound C): about 5 times

Compound: Cc1csc(NC(=O)C2=C(O)c3ccccc3S(=O)(=O)N2C)n1 [Compound B, 4-Hydroxy-2-methyl-N-(4-methyl-2-thiazolyl)-2H-1,2-benzothiazine-3-carboxamide-1,1-dioxide]
- selectivity ratio [1]: 0.84
- TD50 [1]: 0.31 mg/kg
- therapeutic ratio, in words (stomach of the rat; Table IV ratio, compared with compound C): still smaller than that of compound C
- ulcerogenic activity, in words (stomach of the rat; stomach): strong ulcerogenic effect; also recorded: relatively more pronounced than its antiphlogistic activity
- ulcerogenic effect on the stomach, relative to compound A (stomach of the rat; times stronger than that of compound A): more than 6 times
- selectivity ratio [3]: 1320
- LD50 at 336 h [3]: 488 mg/kg
- ED50 (adjuvant arthritis; [4]): 0.21 mg/kg
- ED50 (adjuvant arthritis; [5]): 0.37 mg/kg
- antiphlogistic activity (adjuvant arthritis): does not completely reach the antiphlogistic activity of compound A

Compound: CN1C(C(=O)Nc2nccs2)=C(O)c2ccccc2S1(=O)=O [C, 4-Hydroxy-2-methyl-N-(2thiazolyl)-2H-1,2-benzothiazine-3-carboxamide-1,1-dioxide]
- selectivity ratio [1]: 1.23
- TD50 [1]: 0.95 mg/kg
- ulcerogenic effect on the stomach, relative to compound A (stomach of the rat; in words, compared with compound A): two times stronger
- ED50 ([2]; in Rattus norvegicus): 9.2 mg/kg
- selectivity ratio [3]: 12600
- LD50 at 336 h [3]: 466 mg/kg
- ED50 (adjuvant arthritis; po, read-out: Activity against the primary reaction ED50): 0.77 mg/kg
- ED50 (adjuvant arthritis; po, read-out: Activity against the secondary reaction ED50): 0.6 mg/kg
- antiphlogistic activity (adjuvant arthritis): weaker antiphlogistic activity
